Assay results published in ChEMBL document CHEMBL3739261, “Synthesis and antibacterial activity evaluation of C-5 side chain modified analogues of FYL-66, a potential agent against methicillin-resistant Staphylococcus aureus” (Medchemcomm, 2015).
Converted amounts (≈) assume the structure as drawn. The source made the active and inactive calls. The rule behind the calls is not given here.

Tests used:
[1] = test system: Staphylococcus aureus; experiment: Antibacterial activity against methicillin-susceptible Staphylococcus aureus ATCC 29213 incubated for 18 hrs by broth microdilution method; assay type: functional; settings: ATCC 29213, 18 h
[2] = Octanol/water partition coefficient, log P of the compound by HPLC assay; assay type: physicochemical
[3] = test system: Staphylococcus aureus; experiment: Antibacterial activity against methicillin-resistant Staphylococcus aureus ATCC 33591 in neutropenic Kunming mouse systemic infection model assessed as survival rate at 10 mg/kg, po administered 1 hr post inoculation measured after 1 week; assay type: functional, organism-based
[4] = test system: Staphylococcus aureus; experiment: Antibacterial activity against methicillin-resistant Staphylococcus aureus ATCC 33591 incubated for 18 hrs by broth microdilution method; assay type: functional; settings: ATCC 33591, 18 h
[5] = Clearance in Sprague-Dawley rat blood at 10 mg/kg, po by HPLC analysis; assay type: ADME, organism-based
[6] = Clearance in Sprague-Dawley rat blood at 10 mg/kg, iv by HPLC analysis; assay type: ADME, organism-based
[7] = test system: Pseudomonas aeruginosa; experiment: Antibacterial activity against Pseudomonas aeruginosa ATCC 27853 incubated for 18 hrs by broth microdilution method; assay type: functional; settings: ATCC 27853, 18 h
[8] = test system: Staphylococcus aureus; experiment: Antibacterial activity against methicillin-resistant Staphylococcus aureus ATCC 43300 incubated for 18 hrs by broth microdilution method; assay type: functional; settings: ATCC 43300, 18 h
[9] = test system: Staphylococcus aureus; experiment: Antibacterial activity against methicillin-susceptible Staphylococcus aureus ATCC 25923 incubated for 18 hrs by broth microdilution method; assay type: functional; settings: ATCC 25923, 18 h
[10] = AUC (0 to infinity) in Sprague-Dawley rat blood at 10 mg/kg, iv by HPLC analysis; assay type: ADME, organism-based; set-up: dose 10 mg/kg, route intravenous, time infinity
[11] = Half life in Sprague-Dawley rat blood at 10 mg/kg, iv by HPLC analysis; assay type: ADME, organism-based
[12] = test system: Staphylococcus aureus; experiment: Antibacterial activity against methicillin-resistant Staphylococcus aureus ATCC 33591 in neutropenic Kunming mouse systemic infection model assessed as survival rate at 20 mg/kg, po administered 1 hr post inoculation measured on day 3; assay type: functional; settings: ATCC 33591, po
[13] = Oral bioavailability in Sprague-Dawley rat blood at 10 mg/kg by HPLC analysis; assay type: ADME, organism-based
[14] = test system: Staphylococcus aureus; experiment: Antibacterial activity against methicillin-resistant Staphylococcus aureus ATCC 33591 in neutropenic Kunming mouse systemic infection model assessed as survival rate at 20 mg/kg, po administered 1 hr post inoculation measured on day 1 to 2; assay type: functional; settings: ATCC 33591, po
[15] = test system: Staphylococcus aureus; experiment: Antibacterial activity against methicillin-susceptible Staphylococcus aureus ATCC 6538 incubated for 18 hrs by broth microdilution method; assay type: functional; settings: ATCC 6538, 18 h
[16] = Cytotoxicity against human L02 cells after 48 hrs by MTT assay; assay type: cell-based; settings: L02, 48 h
[17] = test system: Staphylococcus aureus; experiment: Antibacterial activity against methicillin-susceptible Staphylococcus aureus CMCC 2603 incubated for 18 hrs by broth microdilution method; assay type: functional; settings: CMCC 2603, 18 h
[18] = Cytotoxicity against HEK293A cells after 48 hrs by MTT assay; assay type: cell-based; settings: Homo sapiens, HEK293-A
[19] = Tmax in Sprague-Dawley rat blood at 10 mg/kg, po by HPLC analysis; assay type: ADME, organism-based
[20] = test system: Escherichia coli; experiment: Antibacterial activity against Escherichia coli ATCC 25922 incubated for 18 hrs by broth microdilution method; assay type: functional; settings: ATCC 25922, 18 h
[21] = Solubility of compound in distilled water after 24 hrs by HPLC analysis; assay type: physicochemical
[22] = Tmax in Sprague-Dawley rat blood at 10 mg/kg, iv by HPLC analysis; assay type: ADME, organism-based
[23] = Cmax in Sprague-Dawley rat blood at 10 mg/kg, po by HPLC analysis; assay type: ADME, organism-based; set-up: dose 10 mg/kg, route oral
[24] = Cmax in Sprague-Dawley rat blood at 10 mg/kg, iv by HPLC analysis; assay type: ADME, organism-based; set-up: dose 10 mg/kg, route intravenous
[25] = AUC (0 to infinity) in Sprague-Dawley rat blood at 10 mg/kg, po by HPLC analysis; assay type: ADME, organism-based; set-up: dose 10 mg/kg, route oral, time infinity
[26] = Half life in Sprague-Dawley rat blood at 10 mg/kg, po by HPLC analysis; assay type: ADME, organism-based
[27] = test system: Streptococcus pneumoniae; experiment: Antibacterial activity against Penicillin-resistant Streptococcus pneumoniae; assay type: functional
[28] = test system: Staphylococcus aureus; experiment: Antibacterial activity against methicillin-resistant Staphylococcus aureus; assay type: functional
[29] = test system: Enterococcus; experiment: Antibacterial activity against Enterococcus; assay type: functional
[30] = test system: Enterococcus; experiment: Antibacterial activity against vancomycin-resistant Enterococcus; assay type: functional

Compound | MIC [1] [µg/mL] | logP [2] | MIC [4] [µg/mL] | CL/F [5] [mL/min/kg] | clearance [6] [mL/min/kg] | MIC [7] [µg/mL] | MIC [8] [µg/mL] | MIC [9] [µg/mL] | AUC(0-inf) [10] [µg·h/mL] | half-life [11] [h] | bioavailability [13] [%] | survival at 20 mg/kg [14] [%] | MIC [15] [µg/mL] | IC50 [16] [µg/mL] | MIC [17] [µg/mL] | IC50 [18] [µg/mL] | Tmax [19] [h] | MIC [20] [µg/mL] | solubility at 24 h [21] [µM] | Tmax [22] [min] | other results
O=C(NC[C@H]1CN(c2ccc(-n3cc(-c4ccccn4)cn3)c(F)c2)C(=O)O1)C(F)F | 2 (≈ 4.64 µM) | 1.9 | 2 (≈ 4.64 µM) | 3.33 | 3 | > 32 | 2 (≈ 4.64 µM) | 2 (≈ 4.64 µM) | 57.6 | 5.4 | 89.6 | 40 | 2 (≈ 4.64 µM) | > 400 | 2 (≈ 4.64 µM) | 167 (≈ 387 µM) | 1.5 | > 32 | 29.9 (≈ 12.9 µg/mL) | 6.6 | Activity [3]: Active; survival at 20 mg/kg [12]: 30%; Cmax [23]: 4360 ng/mL; Cmax [24]: 15000 ng/mL; AUC(0-inf) [25]: 51.6 µg·h/mL; half-life [26]: 8.87 h
CC(=O)NC[C@H]1CN(c2ccc(-n3cc(-c4ccccn4)cn3)c(F)c2)C(=O)O1 | 2 (≈ 5.06 µM) | 1.35 | 2 (≈ 5.06 µM) | 1.5 | 0.833 | > 32 | 2 (≈ 5.06 µM) | 2 (≈ 5.06 µM) | 205 | 0.88 | 76.7 | 30 | 2 (≈ 5.06 µM) | 261 (≈ 660 µM) | 2 (≈ 5.06 µM) | 174 (≈ 440 µM) | 11 | > 32 | 134 (≈ 52.8 µg/mL) | 6.6 | MIC [27]: 0.25 µg/mL (≈ 0.632 µM); MIC [28]: 0.25 µg/mL (≈ 0.632 µM); Cmax [23]: 5770 ng/mL; MIC [29]: 0.25 µg/mL (≈ 0.632 µM); MIC [30]: 0.25 µg/mL (≈ 0.632 µM); AUC(0-inf) [25]: 157 µg·h/mL; half-life [26]: 13.1 h
